For the experiment, the target named is S. cerevisiae eIF2B mutant, luciferase reporter luminescence. Briefly: eIF2B reporter inhibitors in yeast strains, dose response, S. cerevisiae, mutant, wild-type, luminescence, growth (AID 792).
The mark [1] stands for this setting: measured here: mutant yeast growth.
Where [2] appears, read: S. cerevisiae wild-type, luminescence.

Results filed as inconclusive are left out. Activity calls are given as the source filed them. No rule for the calls is given here.

By IC50 is commonly meant the midpoint of a concentration-inhibition curve. For the molecule `CCCOc1ccc(N2C(=O)CC(SC(=NCC)Nc3cccc(F)c3)C2=O)cc1` (stereo unspecified), the IC50 was > 100 µM (inactive). This molecule registered a half-maximal inhibitory concentration (IC50) under setting [1] above 100 µM.
Consider `CCOC(=O)c1sc(N)c(C#N)c1CSc1nc2ccc(C)cc2[nH]1`, for which the IC50 was > 100 µM (inactive). Under setting [1], the half-inhibitory concentration (IC50) was above 100 µM.
Consider `O=C1CC(O)(C(F)F)Oc2ccc3ccccc3c21` (stereo unspecified), for which the IC50 is > 100 µM (inactive). The same molecule returned an IC50 under setting [1] above 100 µM.
`Cc1ccc(NC(=O)c2ccc(S(=O)(=O)N3CCCCC3)cc2)cc1`: the IC50 is > 100 µM (inactive). The same molecule displayed an IC50 under setting [1] above 100 µM.
The corresponding values for `CCSc1nnc(-c2ccc(S(=O)(=O)NCc3cccs3)cc2)o1` are > 100 µM (inactive) and above 100 µM.
The corresponding values for `COc1ccc(S(=O)(=O)CCC(=O)N2c3ccccc3CC2C)cc1` (stereo unspecified) are > 100 µM (inactive) and above 100 µM.
In the case of `Cc1cccc2cc3c(NC(=O)c4ccccn4)nn(C)c3nc12`, the IC50 was > 100 µM (inactive). Under setting [1], this molecule had an IC50 of 64.2 µM.
On to `CC(=O)/C=C(\C)Nc1ccc(-c2cnc(-c3ccccc3)o2)cc1`, for which the IC50 entry is “inactive”. This molecule gave a half-inhibitory concentration (IC50) under setting [2] above 100 µM. The molecule also yielded an IC50 under setting [1] above 100 µM.
Take `CC(=O)Nc1ccc(OCC(O)CN2CCN(S(=O)(=O)c3ccc(NC(C)=O)cc3)CC2)cc1` (stereo unspecified): the IC50 is > 100 µM (inactive). Under setting [1], this molecule gave a concentration for half-maximal inhibition (IC50) above 100 µM.
Take `O=C(CCS(=O)CCC(=O)NCc1ccccc1)NCc1ccccc1`: the IC50 is > 100 µM (inactive). This molecule also displayed an IC50 under setting [1] above 100 µM.
The like results for `CSc1ccccc1NC(=O)c1cc(-c2cccs2)on1` were, in that order, > 100 µM (inactive) and above 100 µM.
The like results for `CCC(Sc1nc2n[nH]c(C)c2c(=N)n1-c1ccc(C)c(Cl)c1)C(=O)N1CCOCC1` (stereo unspecified) were, in that order, > 100 µM (inactive) and above 100 µM.
Turning to `CCOCCCNC(=O)C1CCN(c2cc(C)nc3c(-c4ccc(OC)c(OC)c4)c(C)nn23)CC1`, the IC50 is > 100 µM (inactive). The molecule also gave an IC50 under setting [1] above 100 µM.
As to `CCCCn1nnnc1SCC(=O)N1CCOCC1`, the IC50 was > 100 µM (inactive). This molecule also had an IC50 under setting [1] above 100 µM.
The corresponding values for `CCOc1ccc2cc(/C=C/C(=O)c3ccco3)c(Cl)nc2c1` are > 100 µM (inactive) and above 100 µM.
The corresponding values for `CCC(C)(C(=O)NC1CCCCC1)N(Cc1ccco1)C(=O)c1ccc2c(c1)OCO2` (stereo unspecified) are > 100 µM (inactive) and above 100 µM.
Take `O=C1c2ccccc2C(=O)C1c1ccncc1`: the IC50 entry is “inactive”. This molecule came in with a concentration for half-maximal inhibition (IC50) under setting [2] of 17.9 µM. The molecule further displayed an IC50 under setting [1] above 100 µM.
For `COc1cccc(-n2c(C)nnc2SCC(=O)Nc2ccccc2N2CCOCC2)c1`, the IC50 was > 100 µM (inactive). Under setting [1], this molecule registered an IC50 above 100 µM.
As for `Cc1cc(N)n2nc(-c3ccc(C(C)(C)C)cc3)cc2n1`, the IC50 entry was “inactive”. The IC50 under setting [1] turned out to be 30.1 µM.
On to `O=C(Nc1cccc(-c2cn3cccnc3n2)c1)c1ccc2c(c1)OCO2`, for which the IC50 is > 100 µM (inactive). This molecule displayed a concentration for half-maximal inhibition (IC50) under setting [1] above 100 µM.
The like results for `CCOCCCNC(=O)c1c[nH]c2ccc(C)cc2c1=O` were, in that order, > 100 µM (inactive) and above 100 µM.
Take `CCOP(=O)(C#CC(C)(C)C)C1(O)CCCCC1` (stereo unspecified): the IC50 is > 100 µM (inactive). Besides, the IC50 under setting [1] is above 100 µM.
As for `CCCCOc1ccc(C2CC(=O)N(C)C2=O)cc1` (stereo unspecified), the IC50 is > 100 µM (inactive). In addition, the IC50 under setting [1] was above 100 µM.
The like results for `O=C(CC(C(=O)N1CCc2ccccc21)n1ccnc1)NCC1CCCO1` (stereo unspecified) were, in that order, > 100 µM (inactive) and above 100 µM.
The like results for `CC1Cc2ccccc2N1C(=O)Cn1c(=O)cc(O)c2ccccc21` (stereo unspecified) were, in that order, > 100 µM (inactive) and above 100 µM.
The like results for `CCOC(=O)c1ccc(N2C(=O)C=CC2=O)cc1` were, in that order, “inactive” and 6.02 µM.
On to `COc1cccc(Oc2cn[nH]c2-c2ccc(OC)cc2O)c1`, for which the IC50 result was “inactive”. The molecule also showed a 50% inhibitory concentration (IC50) under setting [2] of 44.1 µM. For the same molecule, under setting [1], the IC50 was determined as 40.8 µM.
`CCC(C)N(C(=O)COC(=O)c1[nH]c(C)c(C(C)=O)c1C)C1CCS(=O)(=O)C1` (stereo unspecified): the IC50 is > 100 µM (inactive). This molecule also gave an IC50 under setting [1] above 100 µM.
For the molecule `COc1ccc(CC(=O)Nc2ccc(N3CCN(c4ccc(OC)cc4)CC3)c(C#N)c2)cc1`, the IC50 was > 100 µM (inactive). The IC50 under setting [1] was above 100 µM.
The corresponding values for `CCn1c(Cc2ccccc2)nnc1SCC(=O)Nc1nnc(-c2ccccc2)s1` are > 100 µM (inactive) and above 100 µM.
As to `CCC(C)Oc1cccc(OCCCCN2C(=O)NC(C)(C)C2=O)c1` (stereo unspecified), the IC50 was > 100 µM (inactive). Under setting [1], this molecule displayed an IC50 above 100 µM.
As to `Cn1c(CNc2ccccc2)cc(=O)n(C)c1=O`, the IC50 was > 100 µM (inactive). The half-inhibitory concentration (IC50) under setting [1] is above 100 µM.
The corresponding values for `Cc1cccc(-n2c(SCC(=O)Nc3nonc3C)nnc2-c2ccoc2C)c1` are > 100 µM (inactive) and above 100 µM.
The corresponding values for `c1ccc(CCc2nc(-c3ccncc3)no2)cc1` are > 100 µM (inactive) and above 100 µM.
The like results for `CCOC(=O)C1(CCSC)NC(c2ccco2)C2C(=O)N(C)C(=O)C21` (stereo unspecified) were, in that order, > 100 µM (inactive) and above 100 µM.
For `COc1ccccc1-n1cnnc1SCC(=O)c1cc(C)n(Cc2cccs2)c1C`, the IC50 is > 100 µM (inactive). For the same molecule, under setting [1], the IC50 was above 100 µM.
The corresponding values for `COc1ccccc1NC(=O)c1cc2ccccc2o/c1=N\O` are > 100 µM (inactive) and above 100 µM.
The corresponding values for `O=C(NC1CCCC1)C(c1ccccc1)N(Cc1ccco1)C(=O)Cc1cccs1` (stereo unspecified) are > 100 µM (inactive) and above 100 µM.
For the molecule `Cc1cc(C)nc(Nc2n[nH]c(COc3ccc(Cl)cc3)n2)n1`, the IC50 was > 100 µM (inactive). Under setting [1], this molecule showed a half-inhibitory concentration (IC50) above 100 µM.
Take `CCC(=O)N1CCc2cc(S(=O)(=O)NC(C(=O)NCc3ccc(F)cc3)C(C)C)ccc21` (stereo unspecified): the IC50 was > 100 µM (inactive). In addition, under setting [1], the half-maximal inhibitory concentration (IC50) is above 100 µM.
On to `COc1ccc(C2=CSC3=NCCN23)cc1F`, for which the IC50 is > 100 µM (inactive). This molecule returned a half-inhibitory concentration (IC50) under setting [1] above 100 µM.
The like results for `O=C(Oc1ccc2c(c1)CCC2)N1CCOCC1` were, in that order, > 100 µM (inactive) and above 100 µM.
The like results for `Cc1c(C(=O)Nc2nccs2)sc2nc(-c3cccs3)cc(C(F)(F)F)c12` were, in that order, > 100 µM (inactive) and above 100 µM.
`Cn1c(=O)[nH]c(=O)c2c1nc(SCC(O)CO)n2Cc1ccccc1Cl` (stereo unspecified): the IC50 is > 100 µM (inactive). The molecule also came in with a 50% inhibitory concentration (IC50) under setting [1] above 100 µM.
The like results for `O=C(Nc1ccc(Sc2ccc(Br)cc2)cc1)c1ccco1` were, in that order, > 100 µM (inactive) and above 100 µM.
With `Oc1ccccc1-c1nnc(-c2ccc(C(F)(F)F)cc2)o1`, the IC50 is > 100 µM (inactive). Further, the half-inhibitory concentration (IC50) under setting [1] is above 100 µM.
In the case of `COc1cccc(-c2nc(N3CCCCC3C)c3ccccc3n2)c1O` (stereo unspecified), the IC50 is > 100 µM (inactive). Besides, the concentration for half-maximal inhibition (IC50) under setting [1] was above 100 µM.
The corresponding values for `Cc1nnc2sc(-c3ccncc3)nn12` are > 100 µM (inactive) and above 100 µM.
On to `O=C(c1ccccc1)N1CCN(C(=O)c2ccncc2)CC1`, for which the IC50 is > 100 µM (inactive). Under setting [1], this molecule displayed a concentration for half-maximal inhibition (IC50) above 100 µM.
Consider `Oc1ccc2ccc3cccc[n+]3c2c1`, for which the IC50 is > 100 µM (inactive). Further, the IC50 under setting [2] was above 100 µM. Under setting [1], the concentration for half-maximal inhibition (IC50) is above 100 µM.
As for `Cc1ccccc1C(=O)Nc1ccccn1`, the IC50 was > 100 µM (inactive). Further, under setting [1], the half-inhibitory concentration (IC50) was above 100 µM.
The corresponding values for `Cc1cc(C)cc(NS(=O)(=O)c2ccc3[nH]c(=O)[nH]c3c2)c1` are > 100 µM (inactive) and above 100 µM.
For `C=CCn1c(SCC(=O)Nc2cc(C)cc(C)c2)nnc1-c1cnccn1`, the IC50 is > 100 µM (inactive). Besides, under setting [1], the IC50 was above 100 µM.
With `CC(=O)Nc1ccc(Oc2cc(C#N)c(C#N)cc2N2CCCCCC2)cc1`, the IC50 is > 100 µM (inactive). The molecule further gave a half-maximal inhibitory concentration (IC50) under setting [1] above 100 µM.
With `Cc1cc(C)c(NC(=O)CSc2nnc(Cc3cccn3C)n2-c2ccc(F)cc2)c(C)c1`, the IC50 is > 100 µM (inactive). For the same molecule, the IC50 under setting [1] is above 100 µM.
For the molecule `CCC(C(=O)NC1CCCC1)N(C(=O)c1snc(C(N)=O)c1N)c1ccc2c(c1)OCCO2` (stereo unspecified), the IC50 is > 100 µM (inactive). Moreover, the IC50 under setting [1] is above 100 µM.
Regarding `CN(Cc1c(F)cccc1Cl)c1ccc(S(=O)(=O)N2CCOCC2)cn1`, the IC50 was > 100 µM (inactive). Moreover, the IC50 under setting [1] is above 100 µM.
The corresponding values for `Cc1ccc2c(c1)N(CC(=O)NC1CCC(C)CC1)C(=O)CO2` (stereo unspecified) are > 100 µM (inactive) and above 100 µM.
On to `COC(=O)c1sc(NC(=O)COc2cccc3ccccc23)nc1C`, for which the IC50 was > 100 µM (inactive). Further, the IC50 under setting [1] was above 100 µM.
Turning to `CCOC(=O)N1CCN(C(=O)CN(Cc2ccc(Cl)cc2)S(=O)(=O)c2ccc(C)cc2)CC1`, the IC50 is > 100 µM (inactive). Besides, the half-maximal inhibitory concentration (IC50) under setting [1] was above 100 µM.
The like results for `C=CCN(Cc1cccc(OC)c1OC)S(=O)(=O)N(C)C` were, in that order, > 100 µM (inactive) and above 100 µM.
`CCOC(=O)c1cc(S(=O)(=O)N2CCN(C(=O)OCC)CC2)cn1C`: the IC50 is > 100 µM (inactive). The molecule also displayed an IC50 under setting [1] above 100 µM.
The like results for `Nn1c(COc2cccc(Br)c2)nnc1SCC(=O)N1CCc2ccccc2C1` were, in that order, > 100 µM (inactive) and above 100 µM.
The like results for `COc1ccc2[nH]c(=O)c(CN(C(=O)c3cccnc3)c3ccc(C)cc3)cc2c1` were, in that order, > 100 µM (inactive) and above 100 µM.
As for `COCC(=O)NC(c1ccccc1)c1ccccc1`, the IC50 is > 100 µM (inactive). The IC50 under setting [1] was above 100 µM.
Turning to `Oc1ccccc1C1=Nc2ncnn2C(c2ccc(F)cc2)C1` (stereo unspecified), the IC50 was > 100 µM (inactive). Moreover, the IC50 under setting [1] is above 100 µM.

Source of the values: PubChem BioAssay AID792 (PCMD, 2007).
